Several values for one entry are separate records, joined by “and”; a condition that tells them apart may be missing. Identical values can stand only once.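 Following 48 hours of exposure in 96-well plates, responses at five concentrations were used to interpolate endpoints linearly. The concentration for 50% growth inhibition is given as GI50. The concentration for full growth arrest is given as TGI.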
Experiments:
Assay in all cases: NCI-60 cell line screen, 48 h
ACHN renal = tested on: ACHN renal
SF-295 CNS = tested on: SF-295 CNS
KM12 colon = tested on: KM12 colon
EKVX NSCLC = tested on: EKVX NSCLC
CAKI-1 renal = tested on: CAKI-1 renal
UACC-62 melanoma = tested on: UACC-62 melanoma
SR leukemia = tested on: SR leukemia
786-0 renal = tested on: 786-0 renal
NCI-H23 lung = tested on: NCI-H23 lung
RXF 393 renal = tested on: RXF 393 renal

SMILES	TGI (ACHN renal)	TGI (SF-295 CNS)	TGI (KM12 colon)	TGI (EKVX NSCLC)	TGI (CAKI-1 renal)	TGI (UACC-62 melanoma)	TGI (SR leukemia)	TGI (786-0 renal)	TGI (NCI-H23 lung)	TGI (RXF 393 renal)	GI50 (ACHN renal) [µM]	GI50 (SF-295 CNS) [µM]	GI50 (KM12 colon) [µM]	GI50 (EKVX NSCLC)	GI50 (CAKI-1 renal) [µM]	GI50 (UACC-62 melanoma)	GI50 (RXF 393 renal) [µM]	GI50 (SR leukemia) [µM]	GI50 (786-0 renal) [µM]	GI50 (NCI-H23 lung) [µM]
CC1=CC[C@@H]2[C@@H](CC[C@@]2(C)O)C(C)(C)[C@H]1CC[C@@H]1[C@@]2(C)CCC(=O)C(C)(C)O[C@@H]2CC[C@]1(C)O	42.4 µM	48.9 µM	29.6 µM	> 100 µM	96.6 µM	34.9 µM	59.4 µM	59.6 µM	> 100 µM											
Cc1cccc(C)c1NC(=O)CCC(=O)NNC(=O)c1cc(O)c2ccccc2c1	> 100 µM	87.6 µM	> 100 µM	> 100 µM	> 100 µM	71.3 µM	> 100 µM	> 100 µM	88 µM	> 100 µM										
Cc1c(/C=C2\CC/C(=C\c3[nH]c(C(=O)OC(C)(C)C)c(C)c3C)C2=O)[nH]c(C(=O)OC(C)(C)C)c1C		> 100 µM	> 100 µM	> 100 µM	> 100 µM	> 100 µM	> 100 µM	> 100 µM	> 100 µM	> 100 µM										
Cc1cc(N(CCCl)CCCl)ccc1C=Nc1cccnc1	> 100 µM	> 95.7 µM	> 100 µM	98.9 µM	> 43.1 µM	16.1 µM	> 100 µM	> 69.1 µM	> 100 µM	42.5 µM	5.38	8.68	42.6	30 µM	2.46	1.59 µM	11.6	0.695	6.6	6.93
COC1/C=C/O[C@@]2(C)Oc3c(C)c(O)c4c(O)c(cc(O)c4c3C2=O)NC(=O)/C(C)=C\C=C\[C@H](C)C(O)[C@@H](C)[C@@H](O)[C@@H](C)[C@H](OC(C)=O)[C@@H]1C (stereo not given in full)	30.5 µM and 41.9 µM	196 µM	35.4 µM and 97.2 µM	27.8 µM and 136 µM	30.8 µM and 98.6 µM	28 µM and 42.2 µM	20.6 µM and 42.7 µM	15.9 µM and 29.5 µM	33.8 µM	29.9 µM and 25.7 µM	16.9		19	14.2 µM and 58.6 µM	16.9	14.8 µM	14	3.92	4.29	
COc1ccc2c(c1)C(=O)c1c-2c(NCCCN(C)C)nc2ccccc12	2.31 µM	18.9 µM	5.72 µM	23.1 µM	29.6 µM	4.41 µM	3.58 µM	18.7 µM	10 µM		1.11	5.13	2.05	5.54 µM	12.5	2.09 µM		1.09	4.24	2.78
Cc1ccc(NS(=O)(=O)c2ccc(-c3cnc(C4CC4)o3)cc2)cc1	18.4 µM	12.2 µM	15.9 µM	19.9 µM	15.4 µM	14.9 µM	17.7 µM	21 µM	17.9 µM	10.7 µM	4.43	2.66	2.53	4.24 µM	2.77	3.06 µM	2.36	0.316	6.4	4.1
CN(C)c1c(Cl)c(=O)oc2c1ccc1nc(-c3ccccc3)sc12	> 100 µM	> 100 µM	> 100 µM	> 100 µM	> 100 µM	> 100 µM	> 100 µM	> 100 µM	> 100 µM	> 100 µM										
CS(=O)(=O)c1nccc(-c2c(-c3cccc(OCc4ccc(F)cc4)c3)nc3sccn23)n1	> 100 µM	> 100 µM	7.61 µM	> 100 µM	> 100 µM	> 100 µM	> 100 µM	> 100 µM	> 100 µM	> 100 µM	50.1	> 100	2.95	26.4 µM	3.41	17.5 µM	21.7	5.45	16.8	11.7
Cc1c(Cl)cccc1NC(=O)CC1Sc2ccccc2NC1=O (stereo not given)	63.6 µM and 69.8 µM	58.9 µM and > 100 µM	> 91.6 µM and 45.9 µM	> 100 µM	77.4 µM and > 100 µM	77.5 µM and > 100 µM	56.7 µM	50.9 µM and 31.7 µM	70 µM and > 100 µM	28 µM and 41.6 µM						15.2 µM and 38.6 µM				
CCN(CC)c1ccc(NC(C(=O)c2ccccc2)c2ccccc2)cc1 (stereo not given)	3.82 µM	12.6 µM	15.7 µM	14.4 µM	11.6 µM	4.09 µM	> 100 µM	3.59 µM	4.67 µM	3.47 µM	1.9	3.34	4.03	3.59 µM	3.36	1.92 µM	1.7	0.594	1.83	2.15
COc1ccccc1-c1cc2c3c(nc4ccccc42)C(=O)c2cccnc2-c3n1	30.1 µM	50.8 µM	33.2 µM	45.4 µM	27.2 µM	36.7 µM	> 100 µM	29.7 µM	25.3 µM	46.8 µM	13.7	17.4	9.88	14.8 µM	13	16.4 µM	16.7	> 100	15.5	9.06
OCC(O)CC[CH2][Sn]([c]1ccccc1)([c]1ccccc1)[c]1ccccc1 (stereo not given)	21 µM	23.3 µM	29.8 µM	31.7 µM	21.5 µM	29.8 µM	> 100 µM	28.2 µM	29.8 µM	19.7 µM	8.89	11.3	13.9	16.5 µM	8.12	16.1 µM	4.32	49.3	14.8	15.1
O=c1cc2n(c(=O)[nH]1)C1OC(C(O)C1O)[C@@H]2CCO (stereo not given in full)	> 100 µM	> 100 µM	> 100 µM	> 100 µM	> 100 µM	> 100 µM	> 100 µM	> 100 µM	> 100 µM	> 100 µM										
